Experimental data taken from patent US20240270762A1, “PENICILLIN-BINDING PROTEIN INHIBITORS” (priority 2021, published 2024).
In brackets after ≈: the same amount, converted by molar mass.

Columns and labels:
K. pneumoniae SI-117 = assay: microbe, parasite or virus in culture; type: cell-based; details: Klebsiella pneumoniae, SI117, read-out: MIC K. pneumoniae SI-117
E. coli AG100 = assay: microbe, parasite or virus in culture; type: cell-based; details: Escherichia coli, AG100, read-out: MIC E. coli AG100
A. baumannii ATCC 19606 = assay: microbe, parasite or virus in culture; type: cell-based; details: Acinetobacter baumannii, ATCC19606, read-out: MIC, A. baumannii ATCC 19606
E. coli D22 = assay: microbe, parasite or virus in culture; type: cell-based; details: Escherichia coli, D22, read-out: MIC E. coli D22
E. coli ATCC 25922 = assay: microbe, parasite or virus in culture; type: cell-based; details: Escherichia coli, ATCC25922, read-out: MIC E. coli 25922
[1] = tested on: P. aeruginosa (ΔmexAB-oprM); assay: Broth microdilution MIC in CAMHB; type: cell-based; details: Pseudomonas aeruginosa; read-out: MIC P. aeruginosa ΔmexAB-oprM
E. coli AG100A = assay: Broth microdilution MIC in CAMHB; type: cell-based; details: Escherichia coli, read-out: MIC E. coli AG100A
K. pneumoniae UMM = assay: microbe, parasite or virus in culture; type: cell-based; details: Klebsiella pneumoniae, read-out: MIC K. pneumoniae UMM
[2] = target: T1, PBP3 from Pseudomonas aeruginosa (PAO1) (Pseudomonas aeruginosa, UniProt G3XD46); assay: Bocillin-FL fluorescence polarization competition binding, P. aeruginosa PBP3; details: Binding affinity to P. aeruginosa PBP3; fluorescence polarization competition binding assay using Bocillin-FL; read-out: P. aeruginosa PBP3 Potency
T1 construct: made in house
T1 sequence (G3XD46 whole entry): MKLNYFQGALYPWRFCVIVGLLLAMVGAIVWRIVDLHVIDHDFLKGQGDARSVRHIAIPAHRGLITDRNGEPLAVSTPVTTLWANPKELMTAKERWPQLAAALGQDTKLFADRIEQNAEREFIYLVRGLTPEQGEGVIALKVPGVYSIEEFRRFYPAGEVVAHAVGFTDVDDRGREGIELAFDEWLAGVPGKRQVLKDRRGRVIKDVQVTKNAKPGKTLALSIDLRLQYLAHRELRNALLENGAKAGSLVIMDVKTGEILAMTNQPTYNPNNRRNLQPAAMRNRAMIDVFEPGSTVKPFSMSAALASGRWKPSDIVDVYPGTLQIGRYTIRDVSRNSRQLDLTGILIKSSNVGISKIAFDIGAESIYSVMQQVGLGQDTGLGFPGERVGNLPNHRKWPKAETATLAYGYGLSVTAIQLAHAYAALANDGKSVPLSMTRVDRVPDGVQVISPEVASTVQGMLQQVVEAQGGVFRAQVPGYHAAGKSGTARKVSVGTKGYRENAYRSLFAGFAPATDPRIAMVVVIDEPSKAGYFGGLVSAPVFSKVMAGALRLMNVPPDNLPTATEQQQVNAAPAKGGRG
From the text: (§1) To determine the ability of boronic acid-based test PBP inhibitors to bind Penicillin Binding Proteins (PBPs), Bocillin-FL (fluorescently-labeled penicillin V; ThermoFisher Scientific) was used in a fluorescence polarization (FP) competition binding assay to assess inhibitor binding to PBP3 from Escherichia coli (K-12), PBP3 from Pseudomonas aeruginosa (PAO1), PBP1a and PBP3 from Acinetobacter baumannii (ATCC 19606), and PBP2 from Neisseria gonorrhoeae (FA19). PBPs were cloned and purified as described previously (E. coli PBP3, King, D. T, et al., ACS Infectious Diseases 2015, 1, 175-184; P. aeruginosa PBP3, Han et. al., PNAS 2010, 107 (51), 22002-22007; A. baumannii PBPs, Penwell et. al., Antimicrob. Agents Chemother. 2015, 59 (3), 1680-1689; N. gonorrhoeae PBP2, Singh et. al., J. Biol. Chem. 2019, 294 (38), 14020-14032). To establish assay conditions for competition binding, enzyme titration/saturation binding experiments were initially performed. Bocillin-FL was prepared at 0.2 μM in a buffer comprised of 50 mM Hepes (pH 8.0), 300 mM NaCl and 10% (v/v) glycerol for reactions with E. coli, P. aeruginosa and N. gonorrhoeae PBPs, and 25 mM Tris (pH 8.0), 200 mM NaCl, 10% (v/v) glycerol and 0.005% (v/v) Tween 20 for reactions with A. baumannii PBPs. Saturation binding was performed by mixing 40 μl of PBP solutions ranging in concentrations from 0-24 μM with 40 μl of the 0.2 μM Bocillin-FL solution, in individual wells of a black 384-well microplate. FP was measured immediately upon mixing (Excitation, 490 nm; Emission, 520 nm; g-factor, 0.96), using a Cytation3 (BioTek) microplate reader and measured continuously for up to 120 minutes. The FP response stabilized after 15 minutes for P. aeruginosa and A. baumannii PBP3, 30 minutes for E. coli PBP3 and A. baumannii PBP1a, and less than 1 minute for N. gonorrhoeae PBP2. […] The competition binding assay (80 μl final volume) was validated using beta-lactams and PBPs at final concentrations of: 1.5 μM for E. coli PBP3; 0.75 μM for P. aeruginosa PBP3; 1 μM for A. baumannii PBP1a; 0.2 μM for A. baumannii PBP3; and 0.25 μM for N. gonorrhoeae PBP2. Bocillin-FL was at 0.1 μM (0.05 μM with A. baumannii PBP1a) and beta-lactam concentrations ranged from 0-1,000 μM. E. coli PBP3 was incubated with increasing concentrations of ampicillin in a black 384-well microplate (Corning) for 30 minutes. P. aeruginosa PBP3 was incubated for 15 minutes with aztreonam, whereas A. baumannii PBP1a and PBP3 were incubated for 15 minutes with meropenem, and then Bocillin-FL was added followed immediately by the FP measurement for up to 60 minutes. […] The beta-lactam potency was reported as the concentration of beta-lactam required to reduce the amount of PBP bound-Bocillin-FL by 50% (EC50). […] The EC50 of aztreonam was determined to be <0.5 μM for P. aeruginosa PBP3. […] Binding assays for boronic acid PBP inhibitors were performed in an identical fashion for the respective PBPs.

E. coli 901C = assay: microbe, parasite or virus in culture; type: cell-based; details: Escherichia coli, read-out: MIC E. coli 901C
P. aeruginosa ATCC 27853 = assay: microbe, parasite or virus in culture; type: cell-based; details: Pseudomonas aeruginosa, ATCC27853, read-out: MIC P. aeruginosa ATCC 27853
[3] = target: T2, PBP3 from Escherichia coli (K-12) (Escherichia coli, UniProt P0AD68); assay: Bocillin-FL fluorescence polarization competition binding, E. coli PBP3
T2 construct: made in house
T2 sequence (P0AD68 1-577): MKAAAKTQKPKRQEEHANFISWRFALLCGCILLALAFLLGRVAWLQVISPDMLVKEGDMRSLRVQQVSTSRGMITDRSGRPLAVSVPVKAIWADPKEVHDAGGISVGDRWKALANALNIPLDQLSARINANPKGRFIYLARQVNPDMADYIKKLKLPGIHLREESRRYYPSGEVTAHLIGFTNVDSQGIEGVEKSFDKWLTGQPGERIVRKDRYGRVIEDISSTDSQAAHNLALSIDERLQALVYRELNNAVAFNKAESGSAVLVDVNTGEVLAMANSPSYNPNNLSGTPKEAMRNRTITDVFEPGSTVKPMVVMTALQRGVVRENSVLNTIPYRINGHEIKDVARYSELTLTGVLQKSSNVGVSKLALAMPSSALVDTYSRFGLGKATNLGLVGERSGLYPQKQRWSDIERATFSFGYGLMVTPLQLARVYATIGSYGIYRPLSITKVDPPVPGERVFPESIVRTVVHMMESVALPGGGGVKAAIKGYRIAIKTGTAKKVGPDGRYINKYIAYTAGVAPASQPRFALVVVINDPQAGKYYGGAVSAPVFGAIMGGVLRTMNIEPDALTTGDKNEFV
From the text: as §1

P. aeruginosa ATCC 35151 = assay: microbe, parasite or virus in culture; type: cell-based; details: Pseudomonas aeruginosa, ATCC35151, read-out: MIC P. aeruginosa ATCC 35151
K. pneumoniae 848844 = assay: microbe, parasite or virus in culture; type: cell-based; details: Klebsiella pneumoniae, 848844, read-out: MIC K. pneumoniae 848844
[4] = target: T3, PBP1a from Acinetobacter baumannii (ATCC 19606) (Acinetobacter baumannii, UniProt A0ABX6CK30); assay: Bocillin-FL fluorescence polarization competition binding, A. baumannii PBP1a
T3 sequence (A0ABX6CK30 1-851): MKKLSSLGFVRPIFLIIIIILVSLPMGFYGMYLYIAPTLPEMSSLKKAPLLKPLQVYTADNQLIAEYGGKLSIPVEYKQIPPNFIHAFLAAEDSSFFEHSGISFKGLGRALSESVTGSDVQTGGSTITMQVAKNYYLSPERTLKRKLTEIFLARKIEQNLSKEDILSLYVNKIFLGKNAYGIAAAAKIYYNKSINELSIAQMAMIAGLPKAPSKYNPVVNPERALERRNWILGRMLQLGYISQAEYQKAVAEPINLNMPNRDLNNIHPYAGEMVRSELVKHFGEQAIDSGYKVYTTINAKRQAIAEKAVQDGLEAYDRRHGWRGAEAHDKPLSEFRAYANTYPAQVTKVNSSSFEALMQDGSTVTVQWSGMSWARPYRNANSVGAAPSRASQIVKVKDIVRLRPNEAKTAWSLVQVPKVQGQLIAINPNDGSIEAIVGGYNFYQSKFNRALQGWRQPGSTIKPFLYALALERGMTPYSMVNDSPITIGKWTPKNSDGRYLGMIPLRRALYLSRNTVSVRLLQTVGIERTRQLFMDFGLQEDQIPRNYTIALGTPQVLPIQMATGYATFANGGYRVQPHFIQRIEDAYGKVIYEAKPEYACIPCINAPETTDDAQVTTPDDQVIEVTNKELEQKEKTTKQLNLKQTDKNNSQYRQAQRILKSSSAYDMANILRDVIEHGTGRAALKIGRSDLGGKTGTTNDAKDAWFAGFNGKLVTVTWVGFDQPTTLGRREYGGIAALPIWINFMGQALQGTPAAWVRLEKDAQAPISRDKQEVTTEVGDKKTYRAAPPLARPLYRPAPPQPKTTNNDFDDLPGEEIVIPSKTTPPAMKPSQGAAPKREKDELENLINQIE
From the text: as §1

SMILES | MIC (K. pneumoniae SI-117) [µg/mL] | MIC (E. coli AG100) [µg/mL] | MIC (A. baumannii ATCC 19606) [µg/mL] | MIC (E. coli D22) [µg/mL] | MIC (E. coli ATCC 25922) [µg/mL] | MIC [1] [µg/mL] | MIC (E. coli AG100A) [µg/mL] | MIC (K. pneumoniae UMM) [µg/mL] | IC50 [2] [µM] | MIC (E. coli 901C) [µg/mL] | MIC (P. aeruginosa ATCC 27853) [µg/mL] | EC50 [3] [µM] | MIC (P. aeruginosa ATCC 35151) [µg/mL] | MIC (K. pneumoniae 848844) [µg/mL] | EC50 [4] [µM]
O=C(N[C@H](C(=O)N[C@H]1Cc2cccc(C(=O)O)c2OB1O)c1ccc(P(=O)(O)O)cc1)c1cnc2ccnn2c1 (single isomer, unassigned) [Example 186] | > 128 | > 128 | > 128 | > 128 | > 128 | > 128 | > 128 | > 128 | 10 to 50 | 8 to 16 (≈ 14.2 to 28.3 µM) | > 128 | > 250 | 2 to 4 (≈ 3.54 to 7.08 µM) | > 128 | 
C[C@@H](O)[C@H]1C(=O)N2C(C(=O)O)=C(S[C@@H]3CN[C@H](C(=O)N(C)C)C3)[C@H](C)[C@H]12 [meropenem, reference compound] |  |  |  |  |  |  |  |  |  |  |  |  |  |  | < 0.5
